Data on 43 compounds can be found in patent US6979686B1, “Substituted pyrazoles as p38 kinase inhibitors” (Pharmacia Corporation, priority 2001, dated 2005).

Structures can show the parent of a compound that is named as a salt.

T1 sequence (Q16539 whole entry): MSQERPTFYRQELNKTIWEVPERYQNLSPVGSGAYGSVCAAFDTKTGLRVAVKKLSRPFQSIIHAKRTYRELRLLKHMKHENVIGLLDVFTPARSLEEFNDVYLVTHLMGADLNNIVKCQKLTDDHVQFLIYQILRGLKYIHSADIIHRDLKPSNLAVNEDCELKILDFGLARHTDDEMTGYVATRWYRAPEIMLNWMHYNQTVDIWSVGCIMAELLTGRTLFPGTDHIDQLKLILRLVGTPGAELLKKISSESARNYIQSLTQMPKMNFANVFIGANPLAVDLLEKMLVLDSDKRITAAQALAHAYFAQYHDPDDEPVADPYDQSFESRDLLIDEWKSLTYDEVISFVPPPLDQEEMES

The first experiment addresses T1, human p38 kinase alpha (Homo sapiens, UniProt Q16539).
T1 construct: GST (N, cleaved yes); made in house; host or cells: E. coli DH10B
Description: p38 kinase in vitro assay, phosphorylation of biotinylated PHAS-I with 32P-ATP. The experiment is classed as biochemical. To be noted: @ 1.0 uM. The procedure: The coding region of the human p38a cDNA was obtained by PCR-amplification from RNA isolated from the human monocyte cell line THP.1. […] Random primer, dNTP's and Superscript™ reagents were all purchased from Life-Technologies, Gaithersburg, Mass. The reaction was incubated at 42° C. for 1 hour. Amplification of p38 cDNA was performed by aliquoting 5 μl of the reverse transcriptase reaction into a 100 μl PCR reaction containing the following: 80 μl dH2O, 2 μl 50 mM DNTP's, 1 μl each of forward and reverse primers (50 pmol/μl), 10 μl of 10×buffer and 1 μl Expand™ polymerase (Boehringer Mannheim). The PCR primers incorporated BamHI sites onto the 5′ and 3′ end of the amplified fragment, and were purchased from Genosys. […] The PCR amplification was carried out in a DNA Thermal Cycler (Perkin Elmer) by repeating 30 cycles of 94° C. for 1 minute, 60° C. for 1 minute and 68° C. for 2 minutes. After amplification, excess primers and unincorporated dNTP's were removed from the amplified fragment with a Wizard™ PCR prep (Promega) and digested with BamHI (New England Biolabs). The BamHI digested fragment was ligated into BamHI digested PGEX 2T plasmid DNA (PharmaciaBiotech) using T-4 DNA ligase (New England Biolabs) as described by T. Maniatis, Molecular Cloning: A Laboratory Manual, 2nd ed. […] The ligation reaction was transformed into chemically competent E. coli DH10B cells purchased from Life-Technologies following the manufacturer's instructions. Plasmid DNA was isolated from the resulting bacterial colonies using a Promega Wizard™ miniprep kit.
Expression of Human p38a:
Overnight cultures were grown in-Luria Broth (LB) containing […] ampicillin. The next day, 500 ml of fresh LB was inoculated with 10 ml of overnight culture, and grown in a 2 liter flask at 37° C. with constant shaking until the culture reached an absorbance of 0.8 at 600 nm. Expression of the fusion protein was induced by addition of isopropyl b-D-thiogalactosidse (IPTG) to a final concentration of 0.05 mM. The cultures were shaken for three hours at room temperature, and the cells were harvested by centrifugation. The cell pellets were stored frozen until protein purification.
Purification of p38 Kinase-α:
All chemicals were from Sigma Chemical Co. unless noted. Twenty grams of E. coli cell pellet collected from five 1 L shake flask fermentations was resuspended in a volume of PBS (140 mM NaCl, 2.7 mM KCl, 10 mM Na2HPO4, 1.8 mM KH2PO4, pH 7.3) up to 200 ml. The cell suspension was adjusted to 5 mM DTT with 2 M DTT and then split equally into five 50 ml Falcon conical tubes. The cells were sonnicated (Ultrasonics model W375) with a 1 cm probe for 3×1 minutes (pulsed) on ice. Lysed cell material was removed by centrifugation (12,000×g, 15 minutes) and the clarified supernatant applied to glutathione-sepharose resin (Pharmacia).
Glutathione-sepharose Affinity Chromatography:
The resin was collected by centrifugation (600×g, 5 min) and washed with 2×150 ml PBS/1% Triton X-100, followed by 4×40 ml PBS. To cleave the p38 kinase from the GST-p38 fusion protein, the glutathione-sepharose resin was resuspended in 6 ml PBS containing 250 units thrombin protease (Pharmacia, specific activity>7500 units/mg) and mixed gently for 4 hours at room temperature. The glutathione-sepharose resin was removed by centrifugation (600×g, 5 min) and washed 2×6 ml with PBS. The PBS wash fractions and digest supernatant containing p38 kinase protein were pooled and adjusted to 0.3 mM PMSF.
Mono O Anion Exchange Chromatography:
The thrombin-cleaved p38 kinase was further purified by FPLC-anion exchange chromatography.
Take `O=S(=O)(NCc1[nH]nc(-c2ccc(F)cc2)c1-c1ccncc1)c1cccc2cccnc12` [Example B-0116]: the “P38 alpha kinase % inhib @ conc.” value came to 73.0% @.
For the compound `O=S(=O)(NCc1[nH]nc(-c2ccc(F)cc2)c1-c1ccncc1)c1cc(Br)c(Br)s1` [Example B-0136], the “P38 alpha kinase % inhib @ conc.” value is on record as 77.0% @.

Staying with this experiment, now noted: @ 1.0 uM; read-out: P38 alpha kinase % inhib @ conc.
As to `COCC(=O)NCc1[nH]nc(-c2ccc(F)cc2)c1-c1ccncc1` [Example B-0003], the inhibition at 1 µM came out at 70%.
Still for that read-out and setting: under `CC(=O)OCC(=O)NCc1[nH]nc(-c2ccc(F)cc2)c1-c1ccncc1` [Example B-0004] stands 80%; under `O=C(COCc1ccccc1)NCc1[nH]nc(-c2ccc(F)cc2)c1-c1ccncc1` [Example B-0006], 82%.
As to `O=C(NCc1[nH]nc(-c2ccc(F)cc2)c1-c1ccncc1)c1ccc(Br)cc1` [Example B-0007], the inhibition at 1 µM is 74%.
Take `O=C(NCc1[nH]nc(-c2ccc(F)cc2)c1-c1ccncc1)c1ccc(-c2ccccc2)cc1` [Example B-0008]: the inhibition at 1 µM was found to be 42%.
Turning to `CCCCCc1ccc(C(=O)NCc2[nH]nc(-c3ccc(F)cc3)c2-c2ccncc2)cc1` [Example B-0012], the inhibition at 1 µM was determined as 30%.
With `COc1ccc(OC)c(CC(=O)NCc2[nH]nc(-c3ccc(F)cc3)c2-c2ccncc2)c1` [Example B-0013], the inhibition at 1 µM came to 70%.
Regarding `CCCCC(=O)NCc1[nH]nc(-c2ccc(F)cc2)c1-c1ccncc1` [Example B-0014], the inhibition at 1 µM came to 79%.
Take `CCCCCCC(=O)NCc1[nH]nc(-c2ccc(F)cc2)c1-c1ccncc1` [Example B-0015]: the inhibition at 1 µM came to 82%.
`O=C(NCc1[nH]nc(-c2ccc(F)cc2)c1-c1ccncc1)c1ccc(I)cc1` [Example B-0017]: the inhibition at 1 µM was found to be 56%.
Consider `O=C(NCc1[nH]nc(-c2ccc(F)cc2)c1-c1ccncc1)C(=O)c1c[nH]c2ccccc12` [Example B-0018], for which the inhibition at 1 µM stood at 60%.
The same measure, in the same setting: under `O=C(NCc1[nH]nc(-c2ccc(F)cc2)c1-c1ccncc1)c1cc(Cl)cc(Cl)c1` [Example B-0020] stands 73%.
Same read-out and setting: under `Cc1ccc(C(=O)NCc2[nH]nc(-c3ccc(F)cc3)c2-c2ccncc2)cc1` [Example B-0021] stands 68%.
Consider `O=C(NCc1[nH]nc(-c2ccc(F)cc2)c1-c1ccncc1)c1ccc([N+](=O)[O-])cc1` [Example B-0022], for which the inhibition at 1 µM turned out to be 69%.
Take `N#Cc1cccc(C(=O)NCc2[nH]nc(-c3ccc(F)cc3)c2-c2ccncc2)c1` [Example B-0023]: the inhibition at 1 µM was 90%.
`O=C(NCc1[nH]nc(-c2ccc(F)cc2)c1-c1ccncc1)c1ccccc1[N+](=O)[O-]` [Example B-0024]: the inhibition at 1 µM came to 94%.
As to `O=C(NCc1[nH]nc(-c2ccc(F)cc2)c1-c1ccncc1)c1cc2ccccc2s1` [Example B-0029], the inhibition at 1 µM amounted to 91%.
Turning to `CC(C)c1cc(C(C)C)c(C(=O)NCc2[nH]nc(-c3ccc(F)cc3)c2-c2ccncc2)c(C(C)C)c1` [Example B-0030], the inhibition at 1 µM is 92%.
Consider `O=C(NCc1[nH]nc(-c2ccc(F)cc2)c1-c1ccncc1)C(c1ccccc1)c1ccccc1` [Example B-0032], for which the inhibition at 1 µM was 94%.
As to `COc1ccc(C(=O)NCc2[nH]nc(-c3ccc(F)cc3)c2-c2ccncc2)cc1` [Example B-0039], the inhibition at 1 µM is 89%.
Take `COc1cccc(CC(=O)NCc2[nH]nc(-c3ccc(F)cc3)c2-c2ccncc2)c1` [Example B-0040]: the inhibition at 1 µM stood at 93%.
With `CCCCOc1ccc(C(=O)NCc2[nH]nc(-c3ccc(F)cc3)c2-c2ccncc2)cc1` [Example B-0041], the inhibition at 1 µM was found to be 65%.
For the compound `CCC(Oc1ccccc1)C(=O)NCc1[nH]nc(-c2ccc(F)cc2)c1-c1ccncc1` (stereo not shown) [Example B-0047], the inhibition at 1 µM was 94%.

The same experiment, now with this note: @ 10.0 uM.
As to `CCCC(=O)COC(=O)NCc1[nH]nc(-c2ccc(F)cc2)c1-c1ccncc1` [Example B-0177], the “P38 alpha kinase % inhib @ conc.” value is listed as 70.0% @.

Still in this experiment, the particulars now being: Table 8; 1% DMSO; read-out: p38α Kinase Assay IC50.
`O=C(O)c1n[nH]c(-c2ccc(F)cc2)c1-c1ccncc1` [A-313, Step 1, 5-(4-fluorophenyl)-4-(4pyridinyl)-1H-pyrazole-3-carboxylic acid, monohydrate]: the IC50 (in general, the concentration that inhibits the measured activity by half) was 1340 nM.
Turning to `CN1CCN(Cc2n[nH]c(-c3ccc(F)cc3)c2-c2ccncc2)CC1` [A-313, Step 3, 1-[[5-(4-fluorophenyl)-4-(4-pyridinyl)-1H-pyrazol-3-yl]methyl]-4-methylpiperazine], the IC50 was 36 nM.
Same read-out and setting: under `O=C(c1n[nH]c(-c2ccc(F)cc2)c1-c1ccncc1)N1CCNCC1` [A-314, Step 1, 1-[[5-(4-fluorophenyl)-4-(4-pyridinyl)-1H-pyrazol-3-yl]carbonyl]piperazine, monhydrate] stands 850 nM; under `O=C(O)CCC(=O)N1CCN(c2n[nH]c(-c3ccc(Cl)cc3)c2-c2ccncc2)CC1` [A-321 (dihydrate), 4-[5-(4-chlorophenyl)-4-(4-pyridinyl)-1H-pyrazol-3-yl]-γ-oxo-1-piperazinebutanoic acid, dihydrate], 770 nM; under `C#CCn1nc(N2CCNCC2)c(-c2ccncc2)c1-c1ccc(Cl)cc1` [Example A-318, 1-[5-(4-chlorophenyl)-4-(4-pyridinyl)-1-(2-propynyl)-1H-pyrazol-3-yl]piperazine, trihydrochloride monohydrate], 290 nM.
`COC(=O)N1CCN(c2[nH]nc(-c3ccc(Cl)cc3)c2-c2ccncc2)CC1` [Example A-319, methyl 4-[5-(4-chlorophenyl)-4-(4-pyridinyl)-1H-pyrazol-3-yl]-1-piperazinecarboxylate, monohydrate]: the IC50 was found to be 6060 nM.
Turning to `CS(=O)(=O)N1CCN(c2n[nH]c(-c3ccc(Cl)cc3)c2-c2ccncc2)CC1` [Example A-320, 1-[5-(4-chlorophenyl)-4-(4-pyridinyl)-1H-pyrazol-3-yl]-4-(methylsulfonyl)piperazine, monohydrate], the IC50 came out at 270 nM.
For `Fc1ccc(-c2[nH]ncc2-c2ccnc(Nc3ccccc3F)n2)cc1` [Example A-325, N-(2-fluorophenyl)-4-[3-(4-fluorophenyl)-1H-pyrazol-4-yl]-2-pyrimidinamine], the 50% inhibitory concentration (IC50) worked out at 21 nM.
With `Clc1ccc(-c2[nH]nc(N3CCNCC3)c2-c2ccncc2)cc1` [Example A-328, 1-[5-(4-chlorophenyl)-4-(4-pyridinyl)-1H-pyrazol-3-yl]piperazine], the IC50 came to 12 nM.
Take `Clc1ccc(-c2[nH]nc(NC3CCNCC3)c2-c2ccncc2)cc1` [Example A-332, N-[5-(4-chlorophenyl)-4-(4-pyridinyl)-3H-pyrazol-3-yl]-4-piperidineamine, trihydrochloride, monohydrate]: the IC50 was found to be 40 nM.

The experiment is the same for the next values; noted with them: activated human p38 kinase alpha, PHAS-I substrate, 50 μM unlabeled ATP; read-out: p38 kinase IC50.
For the compound `Cc1cccc(-c2n[nH]c(-c3cccc(C)c3)c2-c2ccncc2)c1` [Example A-28], the IC50 turned out to be 300 nM.
For `Cc1[nH]nc(-c2cccc(F)c2C)c1-c1ccncc1` [Example A-33], the 50% inhibitory concentration (IC50) came to 2500 nM.
As for `Cc1cc(C)cc(-c2n[nH]c(C)c2-c2ccncc2)c1` [Example A-34], the concentration for half-maximal inhibition (IC50) was 8000 nM.
For the compound `Cc1n[nH]c(-c2ccccc2F)c1-c1ccncc1` [Example A-40], the IC50 amounted to 1300 nM.
Still for that read-out and setting: under `Cc1[nH]nc(-c2cccc(C(F)(F)F)c2)c1-c1ccncc1` [Example A-42] stands 300 nM.
For `Cc1[nH]nc(-c2ccc(Cl)cc2Cl)c1-c1ccncc1` [Example A-50], the IC50 turned out to be 2300 nM.
Consider `CCOC(=O)CCc1[nH]nc(-c2ccc(Cl)cc2)c1-c1ccncc1` [Example A-53], for which the half-maximal inhibitory concentration (IC50) was determined as 900 nM.
